For nine compounds, MIC and IC50 results are on record in ChEMBL document CHEMBL5233290, “Anulamycins A-F, Cinnamoyl-Containing Peptides from a Lake Sediment Derived Streptomyces” (J Nat Prod, 2023).

The test system of one assay is Bacillus subtilis. The experiment in a line: Antibacterial activity against Bacillus subtilis E168 assessed as inhibition of bacterial growth incubated for 18 hrs by 2-fold serial dilution method. The format is functional.
A further assay relates to Staphylococcus aureus. The experiment in a line: Antibacterial activity against Staphylococcus aureus ATCC 43300 assessed as inhibition of bacterial growth incubated for 18 hrs by 2-fold serial dilution method. The format is functional.
The test system of another assay is Escherichia coli. The experiment in a line: Antibacterial activity against Escherichia coli ATCC35218 assessed as inhibition of bacterial growth incubated for 18 hrs by 2-fold serial dilution method. The format is functional.
For another assay, the system named is A549. Description: Cytotoxicity against human A549 cells assessed as reduction in cell viability incubated for 72 hrs by CCK8 assay. Conditions: A549, 72 h. Type of assay: functional, cell-based. A general note: Tetrazolium dyes change colour on reduction, which living cells bring about.
A further assay concerns K562. Description: Cytotoxicity against human K562 cells assessed as reduction in cell viability incubated for 72 hrs by CCK8 assay. Conditions: K562, 72 h. Type of assay: functional, cell-based.
The test system of assay [1] is Staphylococcus epidermidis. Description: Antibacterial activity against Staphylococcus epidermidis ATCC12228 assessed as inhibition of bacterial growth incubated for 18 hrs by 2-fold serial dilution method. Conditions: ATCC12228, 18 h.

pIC50: −log10 of the molar value. ≈ marks a conversion by molar mass, not a printed value.

One may read the MIC as the least concentration at which growth counts as inhibited. The pIC50 is the negative decadic logarithm of the IC50, by convention in mol/L. As to `C/C=C\c1ccccc1/C=C\C(=O)N[C@H](C(=O)N[C@@H](C)C(=O)N[C@H](C(N)=O)[C@H](C)C(=O)N1CC(=O)N[C@@H]([C@@H](O)c2ccccc2)C(=O)N2CCC[C@H]2C(=O)N[C@@H]([C@@H](O)c2ccc(OC)cc2)C(=O)N[C@H](Cc2c[nH]c3ccccc23)C1=O)[C@@H](C)O`, the minimum inhibitory concentration (MIC) in the assay with Bacillus subtilis was 64 µM (≈ 74.7 µg/mL); with Staphylococcus aureus, 32 µM (≈ 37.4 µg/mL); with Escherichia coli it was above 128 µM; in assay [1], 64 µM (≈ 74.7 µg/mL). The pIC50 in the assay with A549 and in the assay on K562 was below 5.00 in each case.
For the compound `C/C=C\c1ccccc1/C=C/C(=O)N[C@H](C(=O)N[C@@H](C)C(=O)N[C@@H](CC(=O)O)C(=O)NCC(=O)N[C@H](C(=O)N1CCC[C@H]1C(=O)N[C@H](C(=O)N[C@H](Cc1c[nH]c2ccccc12)C(N)=O)[C@@H](O)c1ccc(OC)cc1)[C@@H](O)c1ccccc1)[C@@H](C)O`, the MIC in the assay on Bacillus subtilis is above 128 µM; in the assay with Staphylococcus aureus, 64 µM (≈ 75 µg/mL); with Escherichia coli, above 128 µM; in assay [1], above 128 µM. Also, the negative logarithm of the IC50 (pIC50) with A549 and with K562 was below 5.00 each time.
`C/C=C\c1ccccc1/C=C/C(=O)N[C@@H]1C(=O)N[C@@H](C)C(=O)N[C@@H](CC(=O)O)C(=O)NCC(=O)N[C@@H]([C@@H](O)c2ccccc2)C(=O)N2CCC[C@H]2C(=O)N[C@@H]([C@@H](O)c2ccc(OC)cc2)C(=O)N[C@H](Cc2c[nH]c3ccccc23)C(=O)N[C@@H](O)C(=O)N[C@H](CC(C)C)C(=O)N[C@H]([C@@H](O)C(C)C)C(=O)O[C@@H]1C`: the minimum inhibitory concentration (MIC) with Bacillus subtilis is 48 µM (≈ 70.5 µg/mL); in the assay on Staphylococcus aureus it was 32 µM (≈ 47 µg/mL); with Escherichia coli, above 128 µM; in assay [1], 64 µM (≈ 94.1 µg/mL). Moreover, the negative logarithm of the IC50 (pIC50) with A549 and in the assay with K562 was below 5.00 in each case.
With `C/C=C\c1ccccc1/C=C/C(=O)N/C(=C\C)C(=O)N[C@@H](C)C(=O)N[C@H](C(N)=O)[C@H](C)C(=O)N1CC(=O)N[C@@H]([C@@H](O)c2ccccc2)C(=O)N2CCC[C@H]2C(=O)N[C@@H]([C@@H](O)c2ccc(OC)cc2)C(=O)N[C@H](Cc2c[nH]c3ccccc23)C1=O`, the MIC was 16 µM (≈ 18.4 µg/mL) in the assay with Bacillus subtilis, 16 µM (≈ 18.4 µg/mL) with Staphylococcus aureus, above 128 µM in the assay on Escherichia coli and 16 µM (≈ 18.4 µg/mL) in assay [1]. Further, the negative logarithm of the IC50 (pIC50) in the assay on A549 and in the assay on K562 was below 5.00 throughout.
Regarding `C/C=C\c1ccccc1/C=C\C(=O)N[C@H](C(=O)N[C@@H](C)C(=O)N[C@@H](CC(=O)O)C(=O)NCC(=O)N[C@H](C(=O)N1CCC[C@H]1C(=O)N[C@H](C(=O)N[C@H](Cc1c[nH]c2ccccc12)C(N)=O)[C@@H](O)c1ccc(OC)cc1)[C@@H](O)c1ccccc1)[C@@H](C)O`, the minimum inhibitory concentration (MIC) is above 128 µM in the assay with Bacillus subtilis, 64 µM (≈ 75 µg/mL) in the assay with Staphylococcus aureus, above 128 µM in the assay with Escherichia coli and above 128 µM in assay [1]. Also, the negative-log IC50 (pIC50) in the assay on A549 and with K562 was below 5.00 each time.
In the case of `C/C=C\c1ccccc1/C=C/C(=O)N[C@H](C(=O)N[C@@H](C)C(=O)N[C@H](C(N)=O)[C@H](C)C(=O)N1CC(=O)N[C@@H]([C@@H](O)c2ccccc2)C(=O)N2CCC[C@H]2C(=O)N[C@@H]([C@@H](O)c2ccc(OC)cc2)C(=O)N[C@H](Cc2c[nH]c3ccccc23)C1=O)[C@@H](C)O`, the MIC was 32 µM (≈ 37.4 µg/mL) with Bacillus subtilis, 32 µM (≈ 37.4 µg/mL) with Staphylococcus aureus, above 128 µM in the assay with Escherichia coli and 64 µM (≈ 74.7 µg/mL) in assay [1]. Also, the pIC50 in the assay on A549 and in the assay with K562 was below 5.00 each time.
Consider `C/C=C\c1ccccc1/C=C/C(=O)N[C@H](C(=O)N[C@@H](C)C(=O)N[C@@H](CC(=O)N1CC(=O)N[C@@H]([C@@H](O)c2ccccc2)C(=O)N2CCC[C@H]2C(=O)N[C@@H]([C@@H](O)c2ccc(OC)cc2)C(=O)N[C@H](Cc2c[nH]c3ccccc23)C1=O)C(N)=O)[C@@H](C)O`, for which the minimum inhibitory concentration (MIC) in the assay on Bacillus subtilis is 64 µM (≈ 73.8 µg/mL); in the assay with Staphylococcus aureus, 64 µM (≈ 73.8 µg/mL); in the assay with Escherichia coli, above 128 µM; in assay [1], 128 µM (≈ 148 µg/mL). For the same compound, the pIC50 in the assay with A549 and in the assay with K562 was below 5.00 throughout.
For the compound `C/C=C\c1ccccc1/C=C/C(=O)N[C@@H]1C(=O)N[C@@H](C)C(=O)N[C@@H]([C@H](C)C(=O)O)C(=O)NCC(=O)N[C@@H]([C@@H](O)c2ccccc2)C(=O)N2CCC[C@H]2C(=O)N[C@@H]([C@@H](O)c2ccc(OC)cc2)C(=O)N[C@H](Cc2c[nH]c3ccccc23)C(=O)N[C@@H](O)C(=O)N[C@H](CC(C)C)C(=O)N[C@H]([C@@H](O)C(C)C)C(=O)O[C@@H]1C`, the MIC in the assay with Bacillus subtilis was 16 µM (≈ 23.7 µg/mL); in the assay on Staphylococcus aureus, 16 µM (≈ 23.7 µg/mL); with Escherichia coli, above 128 µM; in assay [1] it was 32 µM (≈ 47.5 µg/mL). The pIC50 with A549 and with K562 was below 5.00 each time.
Take `NC[C@H]1O[C@H](O[C@H]2[C@H](O)[C@@H](O[C@H]3O[C@H](CO)[C@@H](O)[C@H](N)[C@H]3O)[C@H](N)C[C@@H]2N)[C@H](O)[C@@H](O)[C@@H]1O` [KANAMYCIN]: the MIC (with Bacillus subtilis; with Staphylococcus aureus; with Escherichia coli; in assay [1]) was below 2 µM throughout.
